Results reported in publication PMC4457528, “Identification of Novel Small Molecule Inhibitors of Oncogenic RET Kinase” (PLoS ONE, 2015).
Read-outs that look alike come from different tables or passages of the source.

Experiments:
Test in all cases: KinomeScan kinase panel, single concentration 10 µM
Type in all cases: binding
KinomeScan kinase panel [1] = target: T1, KinomeScan kinase panel (Homo sapiens, UniProt O95819); conditions: MAP4K4, 10 µM; read-out: score (%)
T1 construct: purchased DiscoveRx (KinomeScan)

KinomeScan kinase panel [2] = target: T2, KinomeScan kinase panel (Homo sapiens, UniProt P00519, Q252H); conditions: 10 µM, read-out: score (%)
T2 construct: purchased DiscoveRx (KinomeScan)

KinomeScan kinase panel [3] = target: T3, KinomeScan kinase panel (Homo sapiens, UniProt P04626); conditions: ERBB2, 10 µM; read-out: score (%)
T3 construct: purchased DiscoveRx (KinomeScan)

KinomeScan kinase panel [4] = target: T4, KinomeScan kinase panel (Homo sapiens, UniProt P06239); conditions: LCK, 10 µM; read-out: score (%)
T4 construct: purchased DiscoveRx (KinomeScan)

KinomeScan kinase panel [5] = target: T5, KinomeScan kinase panel (Homo sapiens, UniProt P57078); conditions: read-out: score (%)
T5 construct: purchased DiscoveRx (KinomeScan)
T5 sequence (P57078 1-832): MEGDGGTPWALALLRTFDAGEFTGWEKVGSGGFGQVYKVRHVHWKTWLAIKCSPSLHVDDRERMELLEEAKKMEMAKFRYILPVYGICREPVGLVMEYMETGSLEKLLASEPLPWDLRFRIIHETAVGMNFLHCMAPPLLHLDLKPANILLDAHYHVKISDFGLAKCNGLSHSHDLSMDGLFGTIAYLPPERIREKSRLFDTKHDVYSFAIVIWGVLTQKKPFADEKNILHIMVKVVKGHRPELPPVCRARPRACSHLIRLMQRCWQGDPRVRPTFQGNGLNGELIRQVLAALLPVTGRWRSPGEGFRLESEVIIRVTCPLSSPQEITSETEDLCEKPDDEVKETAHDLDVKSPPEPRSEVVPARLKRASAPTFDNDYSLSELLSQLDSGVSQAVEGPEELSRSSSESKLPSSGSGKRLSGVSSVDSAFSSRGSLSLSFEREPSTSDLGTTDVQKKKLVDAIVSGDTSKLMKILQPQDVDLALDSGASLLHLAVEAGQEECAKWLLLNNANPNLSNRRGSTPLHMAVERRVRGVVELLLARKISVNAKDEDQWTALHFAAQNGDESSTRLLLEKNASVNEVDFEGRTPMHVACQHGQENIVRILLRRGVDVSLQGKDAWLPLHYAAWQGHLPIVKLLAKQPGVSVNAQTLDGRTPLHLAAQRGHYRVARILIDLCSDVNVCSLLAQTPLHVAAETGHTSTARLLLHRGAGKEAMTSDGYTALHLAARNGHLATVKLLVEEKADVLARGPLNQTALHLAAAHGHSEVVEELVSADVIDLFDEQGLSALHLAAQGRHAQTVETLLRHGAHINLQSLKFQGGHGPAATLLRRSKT

KinomeScan kinase panel [6] = target: T6, KinomeScan kinase panel (Homo sapiens, UniProt Q04771); conditions: ACVR1, 10 µM; read-out: score (%)
T6 construct: purchased DiscoveRx (KinomeScan)
T6 sequence (Q04771 21-509): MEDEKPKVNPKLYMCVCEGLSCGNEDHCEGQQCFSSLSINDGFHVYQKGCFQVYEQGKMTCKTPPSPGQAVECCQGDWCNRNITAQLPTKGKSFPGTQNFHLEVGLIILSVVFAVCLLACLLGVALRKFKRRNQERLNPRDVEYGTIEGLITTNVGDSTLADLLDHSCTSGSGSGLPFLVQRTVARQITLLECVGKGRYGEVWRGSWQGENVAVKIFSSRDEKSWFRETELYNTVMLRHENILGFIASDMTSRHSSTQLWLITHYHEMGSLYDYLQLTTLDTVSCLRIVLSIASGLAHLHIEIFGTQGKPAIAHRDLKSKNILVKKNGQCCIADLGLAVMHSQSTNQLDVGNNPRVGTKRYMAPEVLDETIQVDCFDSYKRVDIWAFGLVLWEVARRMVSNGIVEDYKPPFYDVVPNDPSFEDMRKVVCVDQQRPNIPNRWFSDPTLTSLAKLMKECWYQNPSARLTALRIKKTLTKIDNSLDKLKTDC

KinomeScan kinase panel [7] = target: T7, KinomeScan kinase panel (Homo sapiens, UniProt Q7KZI7); conditions: MARK2, 10 µM; read-out: score (%)
T7 construct: purchased DiscoveRx (KinomeScan)

KinomeScan kinase panel [8] = target: T8, KinomeScan kinase panel (Homo sapiens, UniProt Q8N568); conditions: DCAMKL2, 10 µM; read-out: score (%)
T8 construct: purchased DiscoveRx (KinomeScan)

KinomeScan kinase panel [9] = target: T9, KinomeScan kinase panel (Homo sapiens, UniProt Q92918); conditions: read-out: score (%)
T9 construct: purchased DiscoveRx (KinomeScan)

KinomeScan kinase panel [10] = target: T10, KinomeScan kinase panel (Homo sapiens, UniProt Q9BRS2); conditions: read-out: score (%)
T10 construct: purchased DiscoveRx (KinomeScan)
T10 sequence (Q9BRS2 1-568): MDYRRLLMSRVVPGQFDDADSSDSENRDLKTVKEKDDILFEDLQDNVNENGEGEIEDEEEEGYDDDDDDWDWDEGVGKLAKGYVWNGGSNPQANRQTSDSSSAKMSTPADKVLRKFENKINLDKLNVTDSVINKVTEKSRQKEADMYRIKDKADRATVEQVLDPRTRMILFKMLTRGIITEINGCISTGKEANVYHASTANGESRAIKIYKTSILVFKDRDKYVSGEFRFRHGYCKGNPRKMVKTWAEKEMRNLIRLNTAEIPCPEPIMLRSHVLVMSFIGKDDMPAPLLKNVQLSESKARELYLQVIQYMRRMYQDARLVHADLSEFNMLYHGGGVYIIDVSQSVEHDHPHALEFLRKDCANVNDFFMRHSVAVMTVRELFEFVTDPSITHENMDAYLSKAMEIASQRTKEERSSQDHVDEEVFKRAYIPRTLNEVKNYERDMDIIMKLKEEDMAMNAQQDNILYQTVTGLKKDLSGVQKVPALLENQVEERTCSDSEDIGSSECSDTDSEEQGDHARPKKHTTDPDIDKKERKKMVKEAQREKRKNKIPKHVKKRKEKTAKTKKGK

KinomeScan kinase panel [11] = target: T11, KinomeScan kinase panel (Homo sapiens, UniProt Q9NYL2); conditions: kinase ZAK; 10 µM; read-out: score (%)
T11 construct: purchased DiscoveRx (KinomeScan)
T11 sequence (Q9NYL2 whole entry): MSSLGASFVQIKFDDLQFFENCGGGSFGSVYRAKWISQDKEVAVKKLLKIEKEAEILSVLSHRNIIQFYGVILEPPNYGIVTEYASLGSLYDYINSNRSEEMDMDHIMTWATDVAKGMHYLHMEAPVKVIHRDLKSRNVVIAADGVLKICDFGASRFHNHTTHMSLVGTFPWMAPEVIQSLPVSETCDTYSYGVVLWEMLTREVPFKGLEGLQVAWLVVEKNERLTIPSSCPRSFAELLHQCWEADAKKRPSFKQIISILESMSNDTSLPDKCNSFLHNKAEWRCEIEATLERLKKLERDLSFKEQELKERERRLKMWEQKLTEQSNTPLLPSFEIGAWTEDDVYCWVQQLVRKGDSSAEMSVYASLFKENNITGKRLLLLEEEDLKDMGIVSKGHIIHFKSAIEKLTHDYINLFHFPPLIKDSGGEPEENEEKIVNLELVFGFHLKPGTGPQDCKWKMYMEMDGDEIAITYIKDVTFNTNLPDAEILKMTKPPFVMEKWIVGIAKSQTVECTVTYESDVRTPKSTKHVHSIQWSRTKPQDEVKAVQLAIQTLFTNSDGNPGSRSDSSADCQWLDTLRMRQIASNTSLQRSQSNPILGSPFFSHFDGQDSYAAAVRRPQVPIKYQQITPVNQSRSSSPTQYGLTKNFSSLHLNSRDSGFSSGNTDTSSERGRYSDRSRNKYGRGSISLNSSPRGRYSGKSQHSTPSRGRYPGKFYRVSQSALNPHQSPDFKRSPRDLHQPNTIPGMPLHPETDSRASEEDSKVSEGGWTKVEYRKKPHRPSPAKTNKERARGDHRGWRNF

T7 sequence (Q7KZI7 whole entry): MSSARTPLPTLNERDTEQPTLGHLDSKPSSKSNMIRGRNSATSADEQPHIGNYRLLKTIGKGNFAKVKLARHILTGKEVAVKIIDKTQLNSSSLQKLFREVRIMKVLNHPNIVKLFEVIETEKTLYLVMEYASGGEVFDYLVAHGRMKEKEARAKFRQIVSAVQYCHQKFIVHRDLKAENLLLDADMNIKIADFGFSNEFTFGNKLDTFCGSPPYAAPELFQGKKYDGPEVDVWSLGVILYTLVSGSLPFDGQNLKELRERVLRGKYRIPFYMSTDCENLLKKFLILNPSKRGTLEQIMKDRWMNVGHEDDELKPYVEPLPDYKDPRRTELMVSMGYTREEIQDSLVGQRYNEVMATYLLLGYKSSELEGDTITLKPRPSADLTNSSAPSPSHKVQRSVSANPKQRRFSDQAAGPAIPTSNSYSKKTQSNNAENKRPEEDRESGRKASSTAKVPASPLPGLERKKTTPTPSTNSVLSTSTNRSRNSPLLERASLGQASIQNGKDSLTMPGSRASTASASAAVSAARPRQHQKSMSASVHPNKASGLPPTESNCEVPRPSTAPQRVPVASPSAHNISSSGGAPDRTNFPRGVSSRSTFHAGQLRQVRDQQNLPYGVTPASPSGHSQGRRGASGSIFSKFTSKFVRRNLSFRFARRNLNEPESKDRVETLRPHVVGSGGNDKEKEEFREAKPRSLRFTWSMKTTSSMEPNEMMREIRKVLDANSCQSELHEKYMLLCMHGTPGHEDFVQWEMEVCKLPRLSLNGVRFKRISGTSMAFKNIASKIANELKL
T4 sequence (P06239 whole entry): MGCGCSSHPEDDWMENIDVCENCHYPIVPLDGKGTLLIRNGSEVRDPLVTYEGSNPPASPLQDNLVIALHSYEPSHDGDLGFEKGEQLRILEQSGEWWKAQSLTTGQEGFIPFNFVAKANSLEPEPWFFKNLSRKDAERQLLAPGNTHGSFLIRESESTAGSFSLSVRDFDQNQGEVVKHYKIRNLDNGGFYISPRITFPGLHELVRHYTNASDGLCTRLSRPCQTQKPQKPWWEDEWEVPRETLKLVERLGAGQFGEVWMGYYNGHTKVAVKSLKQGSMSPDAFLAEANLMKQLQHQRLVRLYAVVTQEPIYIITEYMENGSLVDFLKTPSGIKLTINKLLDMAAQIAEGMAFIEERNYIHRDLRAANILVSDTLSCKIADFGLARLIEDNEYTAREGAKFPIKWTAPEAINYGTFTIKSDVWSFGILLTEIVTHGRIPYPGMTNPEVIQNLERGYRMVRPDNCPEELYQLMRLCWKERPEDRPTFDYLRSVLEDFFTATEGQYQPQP
T8 sequence (Q8N568 whole entry): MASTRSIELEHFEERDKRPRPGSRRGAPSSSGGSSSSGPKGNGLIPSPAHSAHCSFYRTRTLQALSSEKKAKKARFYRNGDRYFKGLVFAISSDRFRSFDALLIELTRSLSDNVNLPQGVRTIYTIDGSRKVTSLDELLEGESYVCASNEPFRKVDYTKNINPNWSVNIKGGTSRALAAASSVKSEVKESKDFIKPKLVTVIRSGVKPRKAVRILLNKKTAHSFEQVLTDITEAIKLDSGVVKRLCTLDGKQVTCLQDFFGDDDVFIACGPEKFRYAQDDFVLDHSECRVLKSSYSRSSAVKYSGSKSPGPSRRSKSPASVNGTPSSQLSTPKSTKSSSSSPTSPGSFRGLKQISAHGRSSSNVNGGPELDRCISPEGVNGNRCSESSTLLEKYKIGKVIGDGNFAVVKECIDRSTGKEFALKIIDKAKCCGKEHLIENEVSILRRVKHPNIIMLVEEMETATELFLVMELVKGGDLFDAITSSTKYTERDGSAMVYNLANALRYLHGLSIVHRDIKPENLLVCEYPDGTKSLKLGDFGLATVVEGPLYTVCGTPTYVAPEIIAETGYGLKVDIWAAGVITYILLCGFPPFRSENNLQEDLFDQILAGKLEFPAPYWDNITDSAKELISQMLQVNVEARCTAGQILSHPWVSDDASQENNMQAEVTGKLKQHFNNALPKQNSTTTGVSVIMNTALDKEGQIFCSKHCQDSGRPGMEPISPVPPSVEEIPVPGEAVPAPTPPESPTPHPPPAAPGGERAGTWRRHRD
T9 sequence (Q92918 whole entry): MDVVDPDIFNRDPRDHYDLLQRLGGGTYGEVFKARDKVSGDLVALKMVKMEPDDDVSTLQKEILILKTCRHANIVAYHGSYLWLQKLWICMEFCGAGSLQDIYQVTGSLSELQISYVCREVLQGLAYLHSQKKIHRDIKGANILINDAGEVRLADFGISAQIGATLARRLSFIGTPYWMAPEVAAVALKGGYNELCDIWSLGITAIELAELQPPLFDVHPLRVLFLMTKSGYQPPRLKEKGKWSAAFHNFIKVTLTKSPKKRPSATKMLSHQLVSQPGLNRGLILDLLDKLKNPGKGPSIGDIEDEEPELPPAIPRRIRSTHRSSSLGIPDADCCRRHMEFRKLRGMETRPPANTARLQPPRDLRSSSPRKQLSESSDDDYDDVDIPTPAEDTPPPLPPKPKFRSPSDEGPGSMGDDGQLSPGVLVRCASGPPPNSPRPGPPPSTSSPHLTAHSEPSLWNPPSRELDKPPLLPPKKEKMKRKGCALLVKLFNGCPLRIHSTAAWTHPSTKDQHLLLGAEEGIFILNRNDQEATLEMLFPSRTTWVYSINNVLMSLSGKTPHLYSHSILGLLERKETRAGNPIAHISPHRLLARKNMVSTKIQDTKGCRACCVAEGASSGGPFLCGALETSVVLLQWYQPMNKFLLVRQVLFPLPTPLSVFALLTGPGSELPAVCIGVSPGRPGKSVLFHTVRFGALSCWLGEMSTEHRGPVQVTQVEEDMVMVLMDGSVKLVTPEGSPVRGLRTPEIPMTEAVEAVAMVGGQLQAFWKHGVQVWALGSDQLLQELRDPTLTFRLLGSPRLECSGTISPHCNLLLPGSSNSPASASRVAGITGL
T3 sequence (P04626 23-1255): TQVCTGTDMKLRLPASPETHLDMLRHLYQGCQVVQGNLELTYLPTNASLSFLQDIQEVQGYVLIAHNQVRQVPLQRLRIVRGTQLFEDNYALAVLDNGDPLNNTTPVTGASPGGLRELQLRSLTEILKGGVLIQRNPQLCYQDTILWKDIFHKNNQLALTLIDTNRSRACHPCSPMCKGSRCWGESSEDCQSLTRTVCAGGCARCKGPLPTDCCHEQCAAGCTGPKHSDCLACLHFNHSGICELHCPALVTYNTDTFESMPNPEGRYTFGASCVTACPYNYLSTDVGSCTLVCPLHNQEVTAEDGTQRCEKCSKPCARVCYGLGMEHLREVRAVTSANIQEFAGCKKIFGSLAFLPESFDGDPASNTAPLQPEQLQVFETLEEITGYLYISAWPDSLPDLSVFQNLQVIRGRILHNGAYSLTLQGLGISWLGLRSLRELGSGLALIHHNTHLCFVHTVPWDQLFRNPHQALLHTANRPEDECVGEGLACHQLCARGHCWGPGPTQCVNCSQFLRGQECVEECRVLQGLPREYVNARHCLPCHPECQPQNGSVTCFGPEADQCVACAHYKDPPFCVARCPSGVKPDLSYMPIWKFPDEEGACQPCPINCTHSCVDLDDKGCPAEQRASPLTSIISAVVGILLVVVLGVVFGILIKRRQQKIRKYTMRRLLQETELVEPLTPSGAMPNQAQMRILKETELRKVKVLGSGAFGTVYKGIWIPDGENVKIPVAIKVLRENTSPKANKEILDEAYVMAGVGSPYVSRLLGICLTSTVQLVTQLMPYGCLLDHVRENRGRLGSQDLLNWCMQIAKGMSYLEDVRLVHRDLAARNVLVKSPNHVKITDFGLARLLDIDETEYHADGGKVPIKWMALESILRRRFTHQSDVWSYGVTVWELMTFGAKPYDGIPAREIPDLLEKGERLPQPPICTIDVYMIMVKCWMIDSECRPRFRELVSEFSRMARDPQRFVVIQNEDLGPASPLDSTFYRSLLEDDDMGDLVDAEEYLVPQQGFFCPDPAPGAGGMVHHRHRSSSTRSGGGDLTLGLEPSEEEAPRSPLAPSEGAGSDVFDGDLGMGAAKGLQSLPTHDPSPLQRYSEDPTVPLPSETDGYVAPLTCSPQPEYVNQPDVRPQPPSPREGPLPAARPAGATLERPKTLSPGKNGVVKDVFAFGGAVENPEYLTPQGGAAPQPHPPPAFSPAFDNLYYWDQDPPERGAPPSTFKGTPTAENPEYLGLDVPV

| remaining binding at 10 µM (KinomeScan kinase panel [9]; MAP4K1, 10 µM) [%] | Compound | remaining binding at 10 µM (KinomeScan kinase panel [1]) [%] | remaining binding at 10 µM (KinomeScan kinase panel [2]; ABL1(Q252H)-nonphosphorylated) [%] | remaining binding at 10 µM (KinomeScan kinase panel [2]; ABL1(Q252H)-phosphorylated) [%] | remaining binding at 10 µM (KinomeScan kinase panel [3]) [%] | remaining binding at 10 µM (KinomeScan kinase panel [4]) [%] | remaining binding at 10 µM (KinomeScan kinase panel [5]; kinase RIPK4, 10 µM) [%] | remaining binding at 10 µM (KinomeScan kinase panel [6]) [%] | remaining binding at 10 µM (KinomeScan kinase panel [7]) [%] | remaining binding at 10 µM (KinomeScan kinase panel [8]) [%] | remaining binding at 10 µM (KinomeScan kinase panel [9]; HPK1, 10 µM) [%] | remaining binding at 10 µM (KinomeScan kinase panel [10]; kinase RIOK1, 10 µM) [%] | remaining binding at 10 µM (KinomeScan kinase panel [11]) [%] | remaining binding at 10 µM (KinomeScan kinase panel [2]; ABL1(Q252H)) [%] | remaining binding at 10 µM (KinomeScan kinase panel [5]; RIPK4, 10 µM) [%] | remaining binding at 10 µM (KinomeScan kinase panel [10]; RIOK1, 10 µM) [%] |
| --- | --- | --- | --- | --- | --- | --- | --- | --- | --- | --- | --- | --- | --- | --- | --- | --- |
|  | CCN1CCN(Cc2ccc(NC(=O)c3ccc(C)c(C#Cc4cccnc4)c3)cc2C(F)(F)F)CC1 [XMD15-44] | 3.3 | 6.4 | 0.7 | 0.5 | 0.05 | 48 | > 30 | > 30 | > 30 | 0.4 | 90 | 0.4 |  |  |  |
| 0.1 | CCN1CCN(Cc2ccc(NC(=O)c3ccc(C)c(/C=C/c4cnc5[nH]ccc5c4Cl)c3)cc2C(F)(F)F)CC1 [HG-6-63-01, (E)-3-(2-(4-chloro-1H-pyrrolo[2,3-b]pyridin-5-yl)vinyl)-N-(4-((4-ethylpiperazin-1-yl)methyl)-3-(trifluoromethyl)phenyl)-4-methylbenzamide] | 0.3 |  |  | 21 | 0.1 |  | > 30 | > 30 | > 30 |  |  | 0.35 | 0.1 | > 30 | 0.2 |
|  | CCN1CCN(Cc2ccc(NC(=O)c3ccc(C)c(NC(=O)c4cncc(-c5cccs5)c4)c3)cc2C(F)(F)F)CC1 [ALW-II-41-27] | 6.4 |  |  | 11 | 0.2 |  | > 30 | > 30 | > 30 | 0.75 |  | 3 | 0.25 | > 30 | > 30 |
